Data taken from ChEMBL document CHEMBL1201862, “PubChem BioAssay data set” (2004).
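All cell lines were grown in 96-well plates and treated with compound for 48 hours. GI50: concentration for 50% inhibition of growth.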 The source made the active and inactive calls. No stated cut-off is given here; in the data, active = GI50 up to about 1.1 µM and inactive = higher.

Experiments:
Assay in all cases: inhibition of tumour cell growth, NCI panel, 48 h
BT-549 = system: BT-549
ACHN = system: ACHN
HCT-116 = system: HCT-116
UO-31 = system: UO-31
MDA-MB-231 = system: MDA-MB-231
HOP-62 = system: HOP-62
HOP-92 = system: HOP-92
CCRF-CEM = system: CCRF-CEM
MCF7 = system: MCF7
OVCAR-8 = system: OVCAR-8
OVCAR-4 = system: OVCAR-4
NCI-H460 = system: NCI-H460
NCI-H23 = system: NCI-H23
SW-620 = system: SW-620
A549 = system: A549
SF-539 = system: SF-539
CAKI-1 = system: CAKI-1
MDA-MB-435 = system: MDA-MB-435
IGROV-1 = system: IGROV-1
HCT-15 = system: HCT-15

| Compound | GI50 (BT-549) | GI50 (ACHN) | GI50 (HCT-116) | GI50 (UO-31) | GI50 (MDA-MB-231) | GI50 (HOP-62) | GI50 (HOP-92) | GI50 (CCRF-CEM) | GI50 (MCF7) | GI50 (OVCAR-8) | GI50 (OVCAR-4) | GI50 (NCI-H460) | GI50 (NCI-H23) | GI50 (SW-620) | GI50 (A549) | GI50 (SF-539) | GI50 (CAKI-1) | GI50 (MDA-MB-435) | GI50 (IGROV-1) | GI50 (HCT-15) [µM] |
| --- | --- | --- | --- | --- | --- | --- | --- | --- | --- | --- | --- | --- | --- | --- | --- | --- | --- | --- | --- | --- |
| C[C@H]1C=C2[C@@H]3CC(C)(C(=O)O)CC[C@]3(C)CC[C@]2(C)[C@]2(C)CC[C@H]3C(C)(C)[C@@H](OC(=O)c4cccc5c(=O)c6ccccc6[nH]c45)CC[C@]3(C)[C@@H]12 (some centres undefined) | 47.8 µM (inactive) | 67.3 µM (inactive) | 89.7 µM (inactive) | 70 µM (inactive) | > 100 µM (inactive) | > 100 µM (inactive) | > 100 µM (inactive) | 38 µM (inactive) | 40 µM (inactive) | 41.7 µM (inactive) | 80.4 µM (inactive) | 41 µM (inactive) | 44.3 µM (inactive) | > 100 µM (inactive) | 57.5 µM (inactive) | > 100 µM (inactive) | > 100 µM (inactive) | 41.8 µM (inactive) | > 100 µM (inactive) | > 100 |
| CC(C)(C)C1CCC2(CC1)CCN(CCCN1CCOCC1)CC2 | > 100 µM (inactive) | > 73.3 µM (inactive) | 27.6 µM (inactive) | 48.3 µM (inactive) | > 100 µM (inactive) | > 41.5 µM (inactive) | 17.7 µM (inactive) | 25.4 µM (inactive) | > 100 µM (inactive) | > 81.1 µM (inactive) | > 93.8 µM (inactive) | 39.7 µM (inactive) | 52.1 µM (inactive) | > 42.8 µM (inactive) | > 49.9 µM (inactive) | 18.7 µM (inactive) | > 34.7 µM (inactive) | 28.2 µM (inactive) | > 65 µM (inactive) | 22.3 |
| CC(=NNC(=S)Nc1ccccc1)c1cccc(C(C)=NNC(=S)Nc2ccccc2)n1 | 12.2 µM (inactive) | 1.23 µM (inactive) | 3.32 µM (inactive) | 2.34 µM (inactive) | 4.62 µM (inactive) | 2.11 µM (inactive) | 2.25 µM (inactive) | 1.74 µM (inactive) | 3.11 µM (inactive) | 0.968 µM (active) | 3.66 µM (inactive) | 2.65 µM (inactive) | 7.46 µM (inactive) | 3.66 µM (inactive) | 3.94 µM (inactive) | 1.47 µM (inactive) | 1.79 µM (inactive) | 8.32 µM (inactive) | 2.08 µM (inactive) | 4.58 |
| O=C(O)CCc1nc2ccccc2[nH]1 [PROCODAZOLE] | > 100 µM (inactive) | > 100 µM (inactive) | > 100 µM (inactive) | > 100 µM (inactive) | > 100 µM (inactive) | > 100 µM (inactive) | > 100 µM (inactive) | > 100 µM (inactive) | > 100 µM (inactive) | > 100 µM (inactive) | > 100 µM (inactive) | > 100 µM (inactive) | > 100 µM (inactive) | > 100 µM (inactive) | > 100 µM (inactive) | > 100 µM (inactive) | > 100 µM (inactive) | > 100 µM (inactive) | > 100 µM (inactive) | > 100 |
| C[C@H](CCc1nc(C#N)c(N)o1)[C@H]1CC[C@H]2[C@@H]3[C@@H](O)CC4C[C@@H](O)CC[C@]4(C)[C@H]3C[C@@H](O)[C@]12C (some centres undefined) | 9.86 µM (inactive) | 26.4 µM (inactive) | 21.4 µM (inactive) | 20.6 µM (inactive) | 25.6 µM (inactive) | 26.5 µM (inactive) | 22.2 µM (inactive) | 0.498 µM (active) | 33.1 µM (inactive) | 12.9 µM (inactive) | 1.99 µM (inactive) | 21.9 µM (inactive) | 24 µM (inactive) | 23.5 µM (inactive) | 29.4 µM (inactive) | 17.9 µM (inactive) | 30.5 µM (inactive) | 22 µM (inactive) | 10.2 µM (inactive) | 48.3 |
| COc1ccc2c3c1OC1C(=O)C=CC4(O)C(C2)NCC[C@@]314 (some centres undefined) | 1.95 µM (inactive) | 2.23 µM (inactive) | 1.73 µM (inactive) | 2.1 µM (inactive) | 2.95 µM (inactive) | 2.39 µM (inactive) | 5.26 µM (inactive) | 0.574 µM (active) | 1.98 µM (inactive) | 1.69 µM (inactive) | 2.62 µM (inactive) | 3.37 µM (inactive) | 2.03 µM (inactive) | 1.11 µM (active) | 4.61 µM (inactive) | 1.55 µM (inactive) | 2.13 µM (inactive) | 1.4 µM (inactive) | 5.71 µM (inactive) | 2.11 |
| CC1(C)C2C=C(CCN3CCOCC3)CC1C2 (centres undefined) | > 100 µM (inactive) | > 100 µM (inactive) | > 100 µM (inactive) | > 100 µM (inactive) | > 100 µM (inactive) | > 100 µM (inactive) | 15.3 µM (inactive) | > 100 µM (inactive) | > 100 µM (inactive) | > 100 µM (inactive) | > 100 µM (inactive) | > 100 µM (inactive) | > 100 µM (inactive) | > 100 µM (inactive) | > 100 µM (inactive) | > 100 µM (inactive) | > 100 µM (inactive) | > 100 µM (inactive) | > 100 µM (inactive) | > 100 |
| Cc1cc(=O)oc2cc(OC(=O)N(CCCl)CCCl)ccc12 | 44.7 µM (inactive) | > 100 µM (inactive) | > 100 µM (inactive) | > 100 µM (inactive) | > 100 µM (inactive) | > 100 µM (inactive) | 18.2 µM (inactive) | 90.4 µM (inactive) | > 100 µM (inactive) | > 100 µM (inactive) | > 100 µM (inactive) | > 100 µM (inactive) | > 100 µM (inactive) | > 100 µM (inactive) | > 100 µM (inactive) | > 100 µM (inactive) | > 100 µM (inactive) | > 100 µM (inactive) | 94.4 µM (inactive) | 77.6 |
| Cc1c2c(n3c(nc4ccccc43)c1C#N)NCC2 | > 10 µM (inactive) | > 10 µM (inactive) | > 10 µM (inactive) | > 10 µM (inactive) | > 10 µM (inactive) | > 10 µM (inactive) | > 10 µM (inactive) | > 10 µM (inactive) | > 10 µM (inactive) | > 10 µM (inactive) | > 10 µM (inactive) | > 10 µM (inactive) | > 10 µM (inactive) | > 10 µM (inactive) | > 10 µM (inactive) | > 10 µM (inactive) | > 10 µM (inactive) | > 10 µM (inactive) | > 10 µM (inactive) | > 10 |
| O=C(O)C1=NN(c2ccc(S(=O)(=O)O)cc2)C2(C1)SCC(=O)N2c1nc2ccccc2s1 (centres undefined) | > 100 µM (inactive) | > 100 µM (inactive) | > 100 µM (inactive) | > 100 µM (inactive) | > 100 µM (inactive) | > 100 µM (inactive) | > 100 µM (inactive) | > 100 µM (inactive) | > 100 µM (inactive) | > 100 µM (inactive) | > 100 µM (inactive) | > 100 µM (inactive) | > 100 µM (inactive) | > 100 µM (inactive) | > 100 µM (inactive) | > 100 µM (inactive) | > 100 µM (inactive) | > 100 µM (inactive) | > 100 µM (inactive) | > 100 |
| COC(=O)[C@]12CCC(=O)N1[C@H](C(=O)O)Cc1c2[nH]c2ccccc12 | > 100 µM (inactive) | > 100 µM (inactive) | > 100 µM (inactive) | > 100 µM (inactive) | > 100 µM (inactive) | > 100 µM (inactive) | > 100 µM (inactive) | > 100 µM (inactive) | > 100 µM (inactive) | > 100 µM (inactive) | > 100 µM (inactive) | > 100 µM (inactive) | > 100 µM (inactive) | > 100 µM (inactive) | > 100 µM (inactive) | > 100 µM (inactive) | > 100 µM (inactive) | > 100 µM (inactive) | > 100 µM (inactive) | > 100 |
| CN(C)c1ccc(/C=C/C(=O)c2cc(C(C)(C)C)c(O)c(C(C)(C)C)c2)cc1 | 3.64 µM (inactive) | 1.73 µM (inactive) | 1.05 µM (active) | 1.61 µM (inactive) | 2.44 µM (inactive) | 2.54 µM (inactive) | > 100 µM (inactive) | 1.01 µM (active) | 0.469 µM (active) | 2.93 µM (inactive) | 1.98 µM (inactive) | 0.82 µM (active) | 2.07 µM (inactive) | 0.986 µM (active) | 2.32 µM (inactive) | 0.625 µM (active) | 1.14 µM (inactive) | 0.258 µM (active) | 4.15 µM (inactive) | 1.15 |
| COC(=N)C12C(N)=NC(OC)(OC)C1(C#N)C21C(=O)N(c2ccccc2)N=C1C (centres undefined) | > 100 µM (inactive) | > 100 µM (inactive) | > 100 µM (inactive) | > 100 µM (inactive) | > 100 µM (inactive) | > 100 µM (inactive) | > 100 µM (inactive) | 36.2 µM (inactive) | > 100 µM (inactive) | > 100 µM (inactive) | > 100 µM (inactive) | > 100 µM (inactive) | > 100 µM (inactive) | > 100 µM (inactive) | > 100 µM (inactive) | > 100 µM (inactive) | > 100 µM (inactive) | > 100 µM (inactive) | > 100 µM (inactive) | > 100 |
| O=C(O)CSCC(=O)Nc1ccc2cccc3c2c1CC3 | > 100 µM (inactive) | > 100 µM (inactive) | > 100 µM (inactive) | > 100 µM (inactive) | > 100 µM (inactive) | > 100 µM (inactive) | > 100 µM (inactive) | > 100 µM (inactive) | 97.1 µM (inactive) | > 100 µM (inactive) | > 100 µM (inactive) | – | > 100 µM (inactive) | > 100 µM (inactive) | > 100 µM (inactive) | > 100 µM (inactive) | > 100 µM (inactive) | > 100 µM (inactive) | > 100 µM (inactive) | > 100 |
